Molecules are shown by their SMILES.

Holding throughout (format): ADME
What all share (conditions): probe aminopyrine

The subject of data set [1] is cytochrome P450. The experiment in a line: Inactivation of cytochrome P450 in rat liver microsomes assessed as inhibition of aminopyrine demethylation at 1 mM preincubated for 12 mins measured 5 mins after substrate addition by Nash reagent based colorimetry (reference value: 0%).
Data set [2] relates to cytochrome P450. The data set is described as follows: Inactivation of cytochrome P450 in rat liver microsomes assessed as inhibition of aminopyrine demethylation at 1 mM measured without preincubation by Nash reagent based colorimetry (reference value: 0%). Background: Liver microsomes are a subcellular fraction often used to study metabolism.
Data set [3] concerns cytochrome P450. The data set is described as follows: Inactivation of cytochrome P450 in rat liver microsomes assessed as inhibition of aminopyrine demethylation at 1 mM preincubated for 12 mins measured 5 mins after substrate addition by Nash reagent based colorimetry in presence of GSH (reference value: 0%).
Data set [4] deals with cytochrome P450. The data set is described as follows: Inactivation of cytochrome P450 in rat liver microsomes assessed as inhibition of aminopyrine demethylation at 1 mM measured without preincubation by Nash reagent based colorimetry in presence of flavoprotein amine oxidase alternate substrate-inhibitor methimazole (reference value: 0%).
Data set [5] concerns cytochrome P450. The data set is described as follows: Inactivation of cytochrome P450 in rat liver microsomes assessed as inhibition of aminopyrine demethylation at 1 mM preincubated for 12 mins measured 5 mins after substrate addition by Nash reagent based colorimetry in presence of CO/O2 (80:20) (reference value: 0%).
In data set [6] the test system is cytochrome P450. The experiment in a line: Inactivation of cytochrome P450 in rat liver microsomes assessed as inhibition of aminopyrine demethylation at 1 mM measured without preincubation by Nash reagent based colorimetry in presence of GSH (reference value: 0%).
Data set [7] concerns cytochrome P450. The data set is described as follows: Inactivation of cytochrome P450 in rat liver microsomes assessed as inhibition of aminopyrine demethylation at 1 mM preincubated for 12 mins measured 5 mins after substrate addition by Nash reagent based colorimetry in presence of flavoprotein amine oxidase alternate substrate-inhibitor methimazole (reference value: 0%).

Data set [8] relates to cytochrome P450. The experiment in a line: Inactivation of cytochrome P450 in rat liver microsomes assessed as inhibition of aminopyrine demethylation at 1 mM preincubated for 12 mins measured 5 mins after substrate addition by Nash reagent based colorimetry in absence of cofactor NADPH-generating system (reference value: 0%).
The test system of data set [9] is cytochrome P450. The data set is described as follows: Inactivation of cytochrome P450 in rat liver microsomes assessed as inhibition of aminopyrine demethylation at 0.1 mM preincubated for 12 mins measured 5 mins after substrate addition by Nash reagent based colorimetry (reference value: 0%).

As for `c1ccc(CN2CCOCC2)cc1`, the inhibition – broadly, how much of the control response was suppressed – at 5 min, 1000 µM with cytochrome P450 [1] was 34%. The inhibition at 1000 µM with cytochrome P450 [2] came to 27%.

Take `c1ccc(CNC2CC2)cc1`: the inhibition at 5 min, 1000 µM was 62% in the data set on cytochrome P450 [3]; 61% in the data set with cytochrome P450 [1]; 24% in the data set on cytochrome P450 [5]; 57% with cytochrome P450 [7]; 13% with cytochrome P450 [8]. The inhibition at 1000 µM in the data set with cytochrome P450 [4] came to 25%; with cytochrome P450 [2], 29%; in the data set on cytochrome P450 [6] it was 17%.

As to `COc1ccc(CNC2CC2)cc1`, the inhibition at 5 min, 1000 µM with cytochrome P450 [1] was found to be 54%.

As for `Cc1ccc(CNC2CC2)cc1`, the inhibition at 5 min, 1000 µM with cytochrome P450 [1] is 77%.

Consider `Clc1ccc(CNC2CC2)cc1`, for which the inhibition at 5 min, 1000 µM with cytochrome P450 [1] is 79%.

Take `Brc1ccc(CNC2CC2)cc1`: the inhibition at 5 min, 1000 µM in the data set with cytochrome P450 [1] stood at 79%.

In the case of `COc1ccc(CNC(C)C)cc1`, the inhibition at 5 min, 1000 µM in the data set on cytochrome P450 [1] is 0%.

Consider `Cc1ccc(CNC(C)C)cc1`, for which the inhibition at 5 min, 1000 µM with cytochrome P450 [1] was found to be 2%.

For `CC(C)NCc1ccccc1`, the inhibition at 5 min, 1000 µM in the data set on cytochrome P450 [1] stood at 9%. The inhibition at 1000 µM in the data set with cytochrome P450 [2] was found to be 9%.

On to `CC(C)NCc1ccc(Cl)cc1`, for which the inhibition at 5 min, 1000 µM in the data set on cytochrome P450 [1] worked out at 25%.

Take `CC(C)NCc1ccc(Br)cc1`: the inhibition at 5 min, 1000 µM in the data set with cytochrome P450 [1] was 27%.

In the case of `C(CCNC1CC1)=C1c2ccccc2CCc2ccccc21`, the inhibition at 5 min, 100 µM with cytochrome P450 [9] worked out at 92%.

Regarding `CC(C)NCCC=C1c2ccccc2CCc2ccccc21`, in the data set with cytochrome P450 [9], the inhibition at 5 min, 100 µM was 55%.

These data come from ChEMBL document CHEMBL3227940, “Cyclopropylamines as suicide substrates for cytochromes P-450” (J Med Chem, 1979).
